The results in this text go back to US10111862B2, “Traps in the treatment of macular degeneration” (Aldeyra Therapeutics, Inc., priority 2013, dated 2018).

A short description of the test: RAL depletion by compounds in rod outer segment preparation. Type of test: biochemical, bovine. Conditions: rod outer segment preparation containing 64 μM opsin at 37° C.; for Kapp, apparent equilibrium constant of RAL depletion / kapp, apparent second order rate constant of RAL depletion: nominal starting drug 1.00 mM, RAL 60 μM; for ΔGapp, apparent free energy change of RAL depletion: ΔGapp=−RT ln Kapp. Here is the method: The parameters associated with the RAL depletion chemistry are as follows:
[drawing 47] kapp: apparent second order rate constant of RAL depletion by drug. Kapp: apparent equilibrium constant of RAL depletion by drug.
[formula] ΔGapp: apparent free energy change of RAL depletion by drug. ΔGapp=−RT ln Kapp (2) Kring: equilibrium constant of tautomerism from imine to oxaminal (ring closed).
Frozen bovine rod outer segment preparation (64 μM of opsin) is thawed and vortexed thoroughly. A 200 μL aliquot of this sample is transferred into a 0.5 mL Eppendorf tube. To it is added 10 μL of 20 mM drug stock solution in EtOH, and the mixture is vortexed for 1 min. The tube is incubated at 37° C. in a Thermo Scientific microprocessor controlled 280 series water bath for 3 min before 5 μL freshly prepared 2.4 mM RAL solution in EtOH is added (the nominal starting concentrations of drug and RAL are 1.00 mM and 60 μM, respectively). After vortexing for 1 min, the tube is incubated at 37° C. over time. Aliquots of the reaction mixture (25 μL each) are taken periodically, and added onto 10 mg of solid NaBH4 in a 0.5 mL Eppendorf tube. To the latter is added carefully 400 μL of 2:1 (v/v) EtOH/HOAc. The reduction mixture is vortexed for 1 min and centrifuged. The supernatant is separated, and analyzed by HPLC using a standard HPLC method:
Solvent A: 0.05% HCOOH/95% HPLC grade water/5% HPLC grade MeCN
Solvent B: 0.05% HCOOH HPLC grade MeCN
Detector wavelengths: 329 and 250 nm
Reference wavelength: 400 nm
The RAL depletion percentages are calculated by normalization of ROL and Re-RAL-drug peak integrals, which are then plotted against reaction time. Least squares fit of the RAL depletion plot according to pseudo-first order kinetics yields observed first order rate constant kobsd, and kapp is calculated according to kobsd=kapp[drug]. Kapp is calculated from the equilibrium concentrations of free RAL, free drug and RAL-drug according to equation (1). ΔGapp was calculated according equation (2).

Regarding `Cc1ccc(-c2nc3cc(N)c(C(C)(C)O)c(Cl)c3o2)cc1` [Compound 2, 2-(5-amino-7-chloro-2-p-tolylbenzoxazol-6-yl)propan-2-ol], the “Kapp, apparent equilibrium constant of RAL depletion” value (from here on “Kapp, apparent equilibrium constant”) is listed as 2.29×10^6; the “kapp, apparent second order rate constant of RAL depletion” value is 24,700 M^−1·h^−1; the “ΔGapp, apparent free energy change of RAL depletion” value (from here on “ΔGapp, apparent free energy change”) was -9.0 kcal/mol.

Turning to `CC(C)(O)c1c(N)cc2nc(-c3ccccc3)oc2c1Cl` [Compound 3, 2-(5-amino-7-chloro-2-phenylbenzoxazol-6-yl)propan-2-ol], the “Kapp, apparent equilibrium constant” value is 7.14×10^6; the “kapp, apparent second order rate constant of RAL depletion” value is given as 21,600 M^−1·h^−1; the “ΔGapp, apparent free energy change” value is -9.7 kcal/mol.

As to `CC(C)(O)c1c(N)cc2onc(C3CC3)c2c1Cl` [Compound 4, 2-(6-amino-4-chloro-3-cyclopropylbenzisoxazol-5-yl)propan-2-ol], the “Kapp, apparent equilibrium constant” value is listed as >2 × 10^7; the “kapp, apparent second order rate constant of RAL depletion” value was 31,700 M^−1·h^−1; the “ΔGapp, apparent free energy change” value was below -10 kcal/mol.

`CC(C)(O)c1c(N)cc2c(C3CC3)noc2c1Cl` [Compound 5, 2-(5-amino-7-chloro-3-cyclopropylbenzisoxazol-6-yl)propan-2-ol]: the “Kapp, apparent equilibrium constant” value is reported as >2 × 10^7; the “kapp, apparent second order rate constant of RAL depletion” value is reported as 35,300 M^−1·h^−1; the “ΔGapp, apparent free energy change” value was below -10 kcal/mol.

On to `CC(C)(O)c1c(N)cc(Cl)c2c(C3CC3)noc12` [Compound 6, 2-(6-amino-4-chloro-3-cyclopropylbenzisoxazol-7-yl)propan-2-ol], for which the “Kapp, apparent equilibrium constant” value is 3.35×10^6; the “kapp, apparent second order rate constant of RAL depletion” value is listed as 12,700 M^−1·h^−1; the “ΔGapp, apparent free energy change” value is -9.2 kcal/mol.

With `CC(C)(O)c1nc2ccc(Cl)cc2cc1N` [reference compound], the “Kapp, apparent equilibrium constant” value is listed as 1.55 × 10^5; the “kapp, apparent second order rate constant of RAL depletion” value is recorded as 3,570 M^−1·h^−1; the “ΔGapp, apparent free energy change” value was -7.4 kcal/mol.

Regarding `CC(C)(O)c1cc2oc(-c3ccccc3)nc2cc1N` [reference compound], the “Kapp, apparent equilibrium constant” value is recorded as 1.25 × 10^6; the “kapp, apparent second order rate constant of RAL depletion” value is on record as 25,500 M^−1·h^−1; the “ΔGapp, apparent free energy change” value is -8.6 kcal/mol.
